Results on 15 compounds are retold here after US5026698A, “Thienopyridine type mevalonolactones” (Nissan Chemical Industries, Ltd., priority 1988, dated 1991).

The test system of data set [1] is cholesterol biosynthesis. The data set can be described thus: Test C: Inhibition of cholesterol biosynthesis in vivo. Further details: species or system Male Sprague-Dawley rats. The note with it: oral, 0.2 mg/kg, rats; DPM/2 ml serum/2 hours. How it is done:
Male Sprague-Dawley rats weighing about 150 g were fed normal Purina chow diet and water ad libitum, and exposed to 12 hours light/12 hours dark lighting pattern (2:00 PM-2:00 AM dark) prior to use for in vivo inhibition test of cholesterol biosynthesis. Animals were separated groups consisting of five rats as to be average mean body weight in each groups. Test compounds at dosage of 0.02-0.2 mg/kg body weight (0.4 ml/100 g body weight), were dissolved in water or suspended in 0 5% methyl cellulose and orally administered at 2-3 hours before mid-dark (8:00 PM), while cholesterol biosynthesis reaches to maximum in rats. As control, rats were orally administered only water or vehicle. At 90 minutes after sample administration, rats were injected intraperitoneally with 10 μCi of [2-^14 C]sodium acetate at volume of 0.2 ml per one. 2 Hours later, blood samples were obtained and serum were separated immediately. Total lipids were extracted according to the method of Folch et al. and saponified with EtOH-KOH. Nonsaponifiable lipids were extracted with petroleum ether and radio activity incorporated into nonsaponifiable lipids was counted.
Inhibitory activity was indicated as percent decrease of counts in testing groups (DPM/2 ml serum/2 hours) from that in control group.

Data set [2] deals with cholesterol biosynthesis. As to the kind of experiment: Test A: Inhibition of cholesterol biosynthesis from acetate in vitro (rat liver microsome and sup fraction, [2-14C]sodium acetate). It counts as biochemical, male Wistar rat. The note with it: for Relative activities by Test A: based on the activity of CS-514 by Test A being evaluated to be 1. As to the method:
Enzyme solution was prepared from liver of male Wistar rat billialy connulated and discharged bile for over 24 hours. Liver was cut out at mid-dark and microsome and supernatant fraction which was precipitable with 40-80% of solution of ammonium sulfate (sup fraction) were prepared from liver homogenate according to the modified method of Knauss et. al.; Kuroda, M., et. al., Biochim. Biophys. Acta, 489, 119 (1977). For assay of cholesterol biosynthesis, microsome (0.1 mg protein) and sup fraction (1.0 mg protein) were incubated for 2 hours at 37° C. in 200 μl of the reaction mixture containing ATP; 1 mM, Glutathione; 6 mM, Glucose-1-phosphate; 10 mM, AND; 0.25 mM, NADP; 0.25 mM, CoA; 0.04 mM and 0.2 mM [2-^14 C]sodium acetate (0.2 μCi) with 4 μl of test compound solution dissolved in water or dimethyl sulfoxide. To stop reaction and saponify, 1 ml of 15% EtOH-KOH was added to the reactions and heated at 75° C. for 1 hour. Nonsaponifiable lipids were extracted with petroleum ether and incorporated ^14 C radioactivity was counted. Inhibitory activity of compounds was indicated with IC50.
With respect to the compounds of the present invention, the inhibitory activities against the cholesterol biosynthesis in which HMG-CoA reductase serves as a rate limiting enzyme, were measured by the above Test A and B. The results are shown in Tables 2, 3-1 and 3-2.
The relative activities of the compounds of the present invention based on the activities of CS-514 by Test A being evaluated to be 1, are shown in Table 2.
A general note: Liver microsomes are vesicles of endoplasmic reticulum, rich in cytochrome P450 enzymes.

In data set [3] the test system is cholesterol biosynthesis in Hep G2 cells. The data set can be described thus: Test B-1: Inhibition of cholesterol biosynthesis in culture cells (Hep G2, [2-14C]sodium acetate added at 0 hr). It counts as cell-based. The conditions noted are these: for Relative activities by Test B-1: based on the activity of CS-514 by Test B-1 being evaluated to be 1; for inhibition at 1 µM: 1.0 × 10^-6 mol/l, read-out: Inhibitory activities at a concentration of 1.0 × 10^-6 mol/l by Test B-1 (Relative activities). As to the method:
Hep G2 cells at over 5th passage were seeded to 12 well plates and incubated with Dulbecco's modified Eagle (DME) medium containing 10% of fetal bovine serum (FBS) at 37° C., 5% CO2 until cells -were confluent for about 7 days. Cells were exposed to the DME medium containing 5% of lipoprotein deficient serum (LpDS) prepared by ultracentrifugation method for over 24 hours. Medium was changed to 0.5 ml of fresh 5% LpDS containing DME before assay and 10 μl of test compound solution dissolved in water or DMSO were added. 0.2 μCi of [2-^14 C]sodium acetate (20 μl) was added at 0 hr(B 1) or 4 hrs(B 2) after addition of compounds. After 4 hrs further incubation with [2-^14 C]sodium acetate, medium was removed and cells were washed with phosphate buffered saline (PBS) chilled at 4° C. Cells were scraped with rubber policeman and collected to tubes with PBS and digested with 0.2 ml of 0.5N KOH at 37° C. Aliquot of digestion was used for protein analysis and remaining was saponified with 1 ml of 15% EtOH-KOH at 75° C. for 1 hour. Nonsaponifiable lipids were extracted with petroleum ether and ^14 C radioactivity was counted. Counts were revised by cell protein and indicated with DPM/mg protein. Inhibitory activity of compounds was indicated with IC50. With respect to the compounds of the present invention, the inhibitory activities against the cholesterol biosynthesis in which HMG-CoA reductase serves as a rate limiting enzyme, were measured by the above Test A and B.

The nature of a further data set: Test D: Acute toxicity. The conditions noted are these: mouse, in vivo, 1000 mg/kg; oral, 1,000 mg/kg, 0.5% CMC suspension, ICR male mice (group of three); read-out: mortality after seven days. As to the method: A 0.5% CMC suspension of a test compound was orally administered to ICR male mice (group of three mice). The acute toxicity was determined based on the mortality after seven darys. With compound I-5-1, I-5-2, I-5-8, I-5-9 and I-5-10 of the present ivnention, the mortality was 0% even when they were orally administered in an amount of 1,000 mg/kg, respectively.

Where [4] appears, read: Homo sapiens, HepG2, Hep G2 cells.

pIC50: −log10 of the molar value.

In the case of `O=C1C[C@H](O)C[C@@H](/C=C/c2c(C3CC3)nc3sccc3c2-c2ccc(F)cc2)O1` (relative stereo) [Compound I-3-11, (E)-trans-6-[2'-(6"-cyclopropyl-4"-(4"'-fluorophenyl)-thieno[2,3-b]pyridin-5"-yl)ethenyl]-4-hydroxy-3,4,5,6-tetrahydro-2H-pyran-2-one], the “percent decrease of counts relative to control group (Test C)” value in the data set on cholesterol biosynthesis [1] was determined as 68%.

By pIC50 is commonly meant the IC50 on a negative log10 scale, so that one unit is a factor of ten. As to `CC[C@H](C)C(=O)O[C@H]1C[C@H](O)C=C2C=C[C@H](C)[C@H](CC[C@@H](O)C[C@@H](O)CC(=O)O)[C@H]21` [CS-514, reference compound], in the data set with cholesterol biosynthesis [1], the “percent decrease of counts relative to control group (Test C)” value came out at 34%. Moreover, the pIC50 is 8.05 with cholesterol biosynthesis [2] (rat liver microsome + sup fraction, 2 hours at 37° C.) and 5.86 in data set [3] (Homo sapiens, HepG2, Hep G2 cells, [2-14C]sodium acetate added at 0 hr).

`CCOC(=O)CC(O)CC(O)/C=C/c1c(C(C)C)nc2sc(C)c(CC)c2c1-c1ccc(F)cc1` (stereo not shown) [Compound I-1-1, Ethyl (E)-7-[3'-ethyl-4'-(4"-fluorophenyl)-2'-methyl-6'-(1"-methylethyl)thieno[2,3-b]pyridin-5'-yl]-3,5-dihydroxyhept-6-enoate]: in the data set with cholesterol biosynthesis [2], the “Relative activities by Test A” value was 0.50. The “Relative activities by Test B-1” value in data set [3] is on record as 196.

What is called mortality is the percentage killed. With `CCc1c(C)sc2nc(C(C)C)c(/C=C/C(O)CC(O)CC(=O)O)c(-c3ccc(F)cc3)c12` (stereo not shown) [Compound I-5-1, Sodium (E)-7-[3'-ethyl-4'-(4"-fluorophenyl)-2'-methyl-6'-(1"-methylethyl)thieno[2,3-b]pyridin-5'-yl]-3,5-dihydroxyhept-6-enoate], the “Relative activities by Test A” value in the data set with cholesterol biosynthesis [2] is recorded as 0.55. Moreover, the “Relative activities by Test B-1” value in data set [3] amounted to 152. The mortality at 168 h in “Test D: Acute toxicity” turned out to be 0%.

For the compound `Cc1cc2c(-c3ccc(F)cc3)c(/C=C/C(O)CC(O)CC(=O)O)c(C(C)C)nc2s1` (stereo not shown) [Compound I-5-2], the “Relative activities by Test A” value with cholesterol biosynthesis [2] is reported as 0.51. Besides, the “Relative activities by Test B-1” value in data set [3] is on record as 76. The mortality at 168 h in “Test D: Acute toxicity” is 0%.

Consider `CC(C)c1nc2sc(-c3ccccc3)cc2c(-c2ccc(F)cc2)c1/C=C/C(O)CC(O)CC(=O)O` (stereo not shown) [Compound I-5-3], for which the inhibition at 1 µM in data set [3] (setting [4]) is 46.8%.

Turning to `Cc1sc2nc(C(C)C)c(/C=C/C(O)CC(O)CC(=O)O)c(-c3ccc(F)cc3)c2c1-c1ccccc1` (stereo not shown) [Compound I-5-4], the inhibition at 1 µM in data set [3] (setting [4]) was determined as 48.2%. In addition, the “Relative activities by Test B-1” value in data set [3] was 1.4.

Take `CC(C)c1cc2c(-c3ccc(F)cc3)c(/C=C/C(O)CC(O)CC(=O)O)c(C(C)C)nc2s1` (stereo not shown) [Compound I-5-5]: the “Relative activities by Test A” value with cholesterol biosynthesis [2] turned out to be 0.31. In data set [3] (setting [4]), the inhibition at 1 µM worked out at 69.8%. The “Relative activities by Test B-1” value in data set [3] is given as 62.

As for `CC(C)c1nc2sc3c(c2c(-c2ccc(F)cc2)c1/C=C/C(O)CC(O)CC(=O)O)CCCC3` (stereo not shown) [Compound I-5-6], the “Relative activities by Test A” value in the data set on cholesterol biosynthesis [2] is listed as 4.1. Further, the “Relative activities by Test B-1” value in data set [3] is 152.

`CCc1c(C)sc2nc(C3CC3)c(/C=C/C(O)CC(O)CC(=O)O)c(-c3ccc(F)cc3)c12` (stereo not shown) [Compound I-5-7]: the “Relative activities by Test A” value in the data set on cholesterol biosynthesis [2] is on record as 0.36. In addition, the inhibition at 1 µM in data set [3] (setting [4]) is 64.1%.

On to `CC(C)c1nc2sc3c(c2c(-c2ccc(F)cc2)c1/C=C/C(O)CC(O)CC(=O)O)CCC3` (stereo not shown) [Compound I-5-8], for which, in the data set on cholesterol biosynthesis [2], the “Relative activities by Test A” value is given as 0.32. The inhibition at 1 µM in data set [3] (setting [4]) is 63.6%. In “Test D: Acute toxicity”, the mortality at 168 h amounted to 0%.

For `O=C(O)CC(O)CC(O)/C=C/c1c(C2CC2)nc2sc3c(c2c1-c1ccc(F)cc1)CCC3` (stereo not shown) [Compound I-5-9], the “Relative activities by Test A” value in the data set with cholesterol biosynthesis [2] is reported as 2.9. Further, in data set [3] (setting [4]), the inhibition at 1 µM amounted to 62.4%. In addition, the mortality at 168 h in “Test D: Acute toxicity” is 0%.

In the case of `O=C(O)CC(O)CC(O)/C=C/c1c(C2CC2)nc2sc3c(c2c1-c1ccc(F)cc1)CCCCC3` (stereo not shown) [Compound I-5-10], the “Relative activities by Test A” value with cholesterol biosynthesis [2] is recorded as 0.21. Further, the inhibition at 1 µM in data set [3] (setting [4]) came to 53.6%. Moreover, the mortality at 168 h in the data set “Test D: Acute toxicity” worked out at 0%.

In the case of `O=C(O)CC(O)CC(O)/C=C/c1c(C2CC2)nc2sccc2c1-c1ccc(F)cc1` (stereo not shown) [Compound I-5-11], the “percent decrease of counts relative to control group (Test C)” value in the data set on cholesterol biosynthesis [1] turned out to be 65%. In addition, the “Relative activities by Test B-1” value in data set [3] amounted to 60.

Turning to `CCOC(=O)CC(=O)CC(O)/C=C/c1c(C(C)C)nc2sc(C)cc2c1-c1ccc(F)cc1` (stereo not shown) [II-2], the “Relative activities by Test B-1” value in data set [3] was found to be 152.
